# According to US6303591A, “21-hydroxy-6,19-oxidoprogesterone (21OH-6OP) and its use as medicament for treating excess of glucocorticoids” (Applied Research Systems ARS Holding NV, priority 1997, dated 2001):
# Entries after “also recorded” stand apart in the source; their conditions may differ.
# What was measured:
# [1] = test system: TAT induction in hepatocytes (GR); test: antagonism of TAT induction by DXM or B in hepatocytes; format: cell-based, rat; conditions: 2.5 μM steroid
# Procedure: (§1) Hatched bars represent incubations performed in the presence of vehicle instead of agonist.
# (§2) Bioassay : Liver glycogen deposition was measured on adrenalectoniized male Sprague-Dawley rats (180-220 g) as follows: steroids were dissolved in ethanol/propylene glycol/0.9% NaCl solution (3:3:34) and 100 μg steroid/l00 g body weight were injected i.m. the previous night. On the morning of the experiment this dose was reinjected intraperitoneally. Three hours later the rats were killed by cervical dislocation and livers were immediately removed. Glycogen purification and quantification were carried out according to Krisman's method (17). Na^+ -retaining properties were measured as described (5). Tyrosine aminotransferase (TAT) was induced in rat hepatocytes isolated by the procedure of Fry et al (18). TAT activity was determined according to Granner and Tomkins (19).
# (§3) The basal TAT activity in hepatocytes, denominated control in the figure, was measured by adding vehicle (final concentration: 0.2% ethanol) to the culture. […] 2.5 μM 21OH-6OP inhibits 80% of TAT induction when concubated with B or DXM.
# [2] = test system: tyrosine aminotransferase (TAT) induction in rat hepatocytes; test: TAT induction in rat hepatocytes (agonism); format: cell-based; conditions: for increase of TAT activity: 100 nM steroid, rat hepatocytes
# Procedure: (§4) FIG. 3: Biological Properties of 21OH-6OP: A) Glycogen storage in vivo: 100 μg steroid/100 g body weight of male rats were injected as indicated in Example 1. Liver glycogen was purified and quantified with Krisman's reagent (17). Controls were injected with vehicle. Results are expressed as means±SEM (n=6). (*): different from controls P<0.02. B) TAT induction in vitro: rat hepatocytes were incubated for 5 h in HAM-F12 medium in the presence of 100 nM steroid and TAT activity was measured. Results are expressed as percentage of enzyme activity (means±SEM, n=4) over controls incubated in the presence of vehicle. (*) different from controls P<0.01. C) Sodium-retaining activity: adrenalectomized rats were treated with the indicated dose of steroids. Results are expressed as the ratio of sodium-excretion rates of steroid-injected animals to the excretion rates of rats injected with vehicle.
# as §1, §2, §3
# liver glycogen = liver glycogen deposition in vivo, adrenalectomized rats; parameters: species or system rat; conditions: 100 μg steroid/100 g body weight; for liver glycogen deposits: compared to ADX controls
# Procedure: as §4, §2
# [3] = test system: Na^+ retention (sodium-excretion rate); test: Na^+ -retaining activity, adrenalectomized rats; format: in vivo, rat
# Procedure: as §4, §2
# [4] = test system: Na^+ retention (sodium-excretion rate); conditions: earlier study, ref (5); cited from earlier work
# type II sites (GR) = biological target: T1, type II sites (GR) (Rattus norvegicus, UniProt P06536); test: tracer binding (Scatchard) to kidney type II sites (GR); conditions: no competitor
# T1 construct: type II receptors in kidney cytosols; from tissue; host or cells: kidney cytosol, adrenalectomized male Sprague-Dawley rats
# T1 sequence (P06536 1-795): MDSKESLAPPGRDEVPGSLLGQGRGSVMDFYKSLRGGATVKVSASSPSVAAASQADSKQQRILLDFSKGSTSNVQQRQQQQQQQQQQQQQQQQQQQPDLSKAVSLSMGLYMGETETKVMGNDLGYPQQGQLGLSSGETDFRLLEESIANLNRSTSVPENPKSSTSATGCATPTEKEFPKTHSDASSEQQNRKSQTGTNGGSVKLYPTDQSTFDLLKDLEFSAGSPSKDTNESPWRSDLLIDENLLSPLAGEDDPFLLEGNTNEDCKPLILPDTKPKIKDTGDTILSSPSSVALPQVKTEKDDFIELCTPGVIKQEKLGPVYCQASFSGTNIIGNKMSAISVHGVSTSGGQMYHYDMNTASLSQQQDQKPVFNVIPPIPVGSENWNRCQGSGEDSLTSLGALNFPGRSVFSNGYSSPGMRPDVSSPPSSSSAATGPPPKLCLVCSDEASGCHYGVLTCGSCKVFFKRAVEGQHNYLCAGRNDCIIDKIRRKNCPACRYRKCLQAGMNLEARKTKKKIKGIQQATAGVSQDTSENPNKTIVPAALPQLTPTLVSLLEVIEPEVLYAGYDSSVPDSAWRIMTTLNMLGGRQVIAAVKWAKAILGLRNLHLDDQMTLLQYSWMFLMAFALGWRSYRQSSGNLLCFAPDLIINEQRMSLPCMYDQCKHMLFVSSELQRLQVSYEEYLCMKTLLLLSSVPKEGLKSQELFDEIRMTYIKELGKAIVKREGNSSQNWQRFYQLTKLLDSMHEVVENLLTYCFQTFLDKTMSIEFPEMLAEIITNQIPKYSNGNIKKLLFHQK
# Procedure: (§5) Binding Assay: Adrenalectomized male Sprague-Dawley rats were bled to death by heart puncture. Cold 0.9% NaCI was injected profusely through the aorta until organs were completely blanched. Thymuses were used as a source of GR and kidneys as a source of MR. Homogenization and incubation conditions were performed as previously described, (14) and (15), respectively. Briefly, homogenates performed in cold TEGM buffer at pH 7.4 (0.1 M Tris-HCl, 10 mM EDTA, 10 mM α-mercaptoethanol, 20 mM Na2 MoO4, 25% glycerol, 0.1 mM PMSF, 2.0 TIU/ml aprotinin and 1 mg% Leupeptin) were centrifuged at 37,000 rev. for 30 min at 0° C. Supernatants from this centrifugation are referred to as "cytosol". […] (^3 H)-P4 binding to uterus PR was assayed on immature female rats according to Jordan et al (16).
# (§6) To study the binding of ALDO to kidney- MR without the competitive influence of the relatively more abundant GR, GR was removed with the specific ligand RU28362 (7).
# The calculated Kd for type I sites in different conditions ranges between 0.4 and 1 nM (Table 1) which is at least eighty times higher than the affinity for type II sites.
# [5] = biological target: T2, type I receptors (kidney MR) (Rattus norvegicus, UniProt P22199); test: tracer binding (Scatchard) to kidney type I sites (MR); conditions: for nH, type I: Hill coefficient; for Q, type I: apparent number of sites
# T2 construct: kidneys as a source of MR; from tissue; host or cells: kidney cytosol, adrenalectomized male Sprague-Dawley rats
# T2 sequence (P22199 1-981): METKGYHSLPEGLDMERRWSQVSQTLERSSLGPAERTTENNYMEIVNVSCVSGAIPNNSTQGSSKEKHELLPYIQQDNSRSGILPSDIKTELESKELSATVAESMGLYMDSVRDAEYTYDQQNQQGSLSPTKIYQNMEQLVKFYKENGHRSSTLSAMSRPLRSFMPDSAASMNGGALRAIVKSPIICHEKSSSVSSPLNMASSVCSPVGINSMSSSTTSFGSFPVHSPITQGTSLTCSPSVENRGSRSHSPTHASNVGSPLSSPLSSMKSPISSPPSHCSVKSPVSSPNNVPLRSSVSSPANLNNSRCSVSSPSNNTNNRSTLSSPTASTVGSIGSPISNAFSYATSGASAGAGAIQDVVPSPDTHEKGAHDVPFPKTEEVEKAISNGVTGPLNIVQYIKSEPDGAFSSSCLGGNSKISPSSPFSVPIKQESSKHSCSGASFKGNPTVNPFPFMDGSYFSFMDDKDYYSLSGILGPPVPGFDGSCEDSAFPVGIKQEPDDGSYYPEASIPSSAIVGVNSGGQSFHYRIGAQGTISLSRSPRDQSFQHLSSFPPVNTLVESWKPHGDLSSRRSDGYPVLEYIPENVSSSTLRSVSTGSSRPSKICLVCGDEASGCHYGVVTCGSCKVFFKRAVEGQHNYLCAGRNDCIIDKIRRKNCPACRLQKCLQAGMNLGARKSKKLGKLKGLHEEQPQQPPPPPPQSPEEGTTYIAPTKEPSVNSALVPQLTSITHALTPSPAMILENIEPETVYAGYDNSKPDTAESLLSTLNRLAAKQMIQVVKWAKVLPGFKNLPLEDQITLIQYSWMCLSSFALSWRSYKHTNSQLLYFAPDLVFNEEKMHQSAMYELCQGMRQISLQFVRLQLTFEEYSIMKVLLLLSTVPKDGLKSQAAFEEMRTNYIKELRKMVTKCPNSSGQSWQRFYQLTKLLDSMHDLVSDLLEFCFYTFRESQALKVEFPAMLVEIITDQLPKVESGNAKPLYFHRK
# Procedure: as §5, with “(16). […]” for “(16).”
# as §6
# hippocampus type I MR = conditions: ref (9); cited from earlier work
# PR = conditions: background; cited from earlier work
# [6] = test system: inoperable cases of nonpituitary Cushing's syndrome; conditions: cited from earlier work
# [7] = in the presence of 2.5 μM 21OH-6OP
# [8] = in the presence of 10 μM RU-28362
structure (smiles),measurement,setting,value
"CC(=O)[C@H]1CC[C@H]2[C@@H]3C[C@H]4OC[C@@]5(CCC(=O)C=C45)[C@H]3CC[C@]12C [6OP, 6,19-oxidoprogesterone]",antagonism of TAT induction by B (in words),[1]; 100 nM B,significantly different (P<0.01) from the basal activity
same,antagonism of TAT induction by DXM (in words),[1]; 100 nM DXM,significantly different (P<0.01) from the basal activity
same,TAT induction (in words),"[2]; FIGS. 3-B and 4 (hatched bars), no agonist added",neither 6OP nor 21OH-6OP evoke these responses; also recorded: Neither 6OP nor 21OH-6OP facilitate TAT induction
same,GC properties,"[2]; preliminary studies, test not specified",lack of GC properties
same,GC response: liver glycogen,liver glycogen; FIG. 3-A,neither 6OP nor 21OH-6OP evoke these responses
same,Na^+ -retaining (MC) properties (in words),[3]; FIG. 3-C,weak Na^+ -retainer; also recorded: then loosing activity at still higher doses
same,maximum Na^+ retention,"[3]; maximum of parabolic dose-response, at high doses",50%
same,Na^+ retaining properties,[4],exhibited practically no Na^+ retaining properties
"C[C@]12CCC(=O)C=C1CC[C@@H]1[C@@H]2[C@@H](O)C[C@]2(C=O)[C@@H](C(=O)CO)CC[C@@H]12 [(^3 H)-ALDO, Aldosterone]","nH, type II",type II sites (GR); Hill coefficient,0.86
same,"Q, type II",type II sites (GR); apparent number of sites,2900 fmol/mg
same,Kd,type II sites (GR),64.4 nM
same,"nH, type I",[5]; [7],0.88
same,"nH, type I",[5]; [8],0.90
same,"nH, type I",[5]; no competitor,0.97
same,"Q, type I",[5]; [7],110 fmol/mg
same,"Q, type I",[5]; [8],124.4 fmol/mg
same,"Q, type I",[5]; no competitor,104 fmol/mg
COC(=O)[C@@H]1CC2=CC(=O)CC[C@]2(C)[C@H]2CC[C@@]3(C)[C@@H]([C@@H]4C[C@@H]4[C@@]34CCC(=O)O4)[C@H]12 [(^3 H)-ZK91587],binding to hippocampus type I MR,hippocampus type I MR,hippocampus type I MR (9)
same,"nH, type I",[5]; no competitor,0.91
same,"Q, type I",[5]; no competitor,98 fmol/mg
same,Kd,[5]; no competitor,0.42 nM
"C[C@]12C[C@H](O)[C@H]3[C@@H](CCC4=CC(=O)CC[C@@]43C)[C@@H]1CC[C@@H]2C(=O)CO [B, corticosterone]",increase of TAT activity,[2],between five and six times
same,liver glycogen deposits,liver glycogen,between three and four times more
"C[C@@H]1C[C@H]2[C@@H]3CCC4=CC(=O)C=C[C@]4(C)[C@@]3(F)[C@@H](O)C[C@]2(C)[C@@]1(O)C(=O)CO [DXM, dexamethasone]",increase of TAT activity,[2],between five and six times
same,liver glycogen deposits,liver glycogen,between three and four times more
CC#C[C@]1(O)CC[C@H]2[C@@H]3C=C(C)C4=CC(=O)C=C[C@]4(C)[C@H]3[C@@H](O)C[C@@]21C [RU28862],reduction of (^3 H)-ALDO Scatchard plot to type I sites,"[5]; 1.0 μM RU28862, selective MR ligand ZK91587",reduces the plot to a single line corresponding to type I sites
CC#C[C@]1(O)CC[C@H]2[C@@H]3CCC4=CC(=O)CCC4=C3[C@@H](c3ccc(N(C)C)cc3)C[C@@]21C [RU38486],antiprogestin activity,PR,strong antiprogestin activity
same,dose needed for effectiveness,[6],20-800 mg per day
